Laboratory results: paper PMC6355826 (EBioMedicine, 2018)

Assays:
[1] = target: T1, methionine adenosyltransferase 2A (MAT2A) (Homo sapiens, UniProt P31153); test: HPLC SAM synthesis assay with purified MAT2A; assay type: biochemical
[2] = target: T1, methionine adenosyltransferase 2A (MAT2A); test: microscale thermophoresis; assay type: binding

T1 sequence (P31153 whole entry): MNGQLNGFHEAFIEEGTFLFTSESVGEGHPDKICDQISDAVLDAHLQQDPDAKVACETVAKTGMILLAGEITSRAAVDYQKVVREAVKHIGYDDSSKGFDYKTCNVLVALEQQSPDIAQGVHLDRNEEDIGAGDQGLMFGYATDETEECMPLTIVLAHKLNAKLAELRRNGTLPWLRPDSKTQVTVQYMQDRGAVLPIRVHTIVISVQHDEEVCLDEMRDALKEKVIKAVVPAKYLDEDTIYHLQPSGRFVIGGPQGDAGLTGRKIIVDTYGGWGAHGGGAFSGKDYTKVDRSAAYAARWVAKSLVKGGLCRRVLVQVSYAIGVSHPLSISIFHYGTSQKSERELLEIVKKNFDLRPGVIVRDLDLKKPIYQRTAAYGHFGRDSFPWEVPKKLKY

Kd [2] [nM] | Compound | HPLC SAM synthesis assay with purified MAT2A [1]
 | Nc1ncnc2c1ncn2[C@@H]1O[C@H](COP(=O)(O)OP(=O)(O)OP(=O)(O)O)[C@@H](O)[C@H]1O [ATP] | MAT2A was incubated with its substrates which were methionine and ATP, and SAM was formed
129 ± 28 | CC(=O)O[C@@H]1CC[C@@]2(C)[C@@H](CC[C@]3(C)[C@@H]2C(=O)C=C2[C@@H]4[C@@H](C)[C@H](C)CC[C@]4(C)CC[C@]23C)[C@@]1(C)C(=O)O [compound 1, AKBA] | 
 | CSCC[C@H](N)C(=O)O [methionine] | MAT2A was incubated with its substrates which were methionine and ATP, and SAM was formed
